Results on twelve compounds are retold here after ChEMBL document CHEMBL1201862, “PubChem BioAssay data set” (2004).

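The compound was tested at five concentrations on cells cultured in 96-well plates, with a 48-hour exposure period. GI50: concentration for 50% inhibition of growth.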 Activity calls are given as the source filed them. Rule as the data show it: active = GI50 up to about 1.1 µM and inactive = higher.

Test systems include OVCAR-3; NCI-H23; BT-549; Malme-3M; NCI-H460; SK-OV-3; M14; Hs-578T; TK-10; HOP-92; SK-MEL-5; NCI-H522; SNB-75; 786-0; HCT-15; COLO 205; SW-620; IGROV-1; A498.
Assay in all cases: NCI anticancer screen, dose series, 48 h

Regarding `O=C1Nc2ccccc2/C1=N/NC(=S)Nc1ccc([N+](=O)[O-])cc1`, the GI50 in the experiment with OVCAR-3 was 13.4 µM (inactive); in the experiment with NCI-H23, 13.8 µM (inactive); in the experiment with BT-549, 14.4 µM (inactive); in the experiment on Malme-3M, 5.28 µM (inactive); with NCI-H460, 2.51 µM (inactive); in the experiment with SK-OV-3, 4.76 µM (inactive). Moreover, the GI50 was 6.62 µM (inactive) in the experiment with M14; 15.6 µM (inactive) with Hs-578T; 10 µM (inactive) with TK-10; 13.2 µM (inactive) with HOP-92; 10.4 µM (inactive) with SK-MEL-5; 12.5 µM (inactive) with NCI-H522. The GI50 is 13.9 µM (inactive) in the experiment with SNB-75; 4.81 µM (inactive) in the experiment with 786-0; 2.33 µM with HCT-15; 10.3 µM (inactive) in the experiment with COLO 205; 4.01 µM (inactive) with SW-620; 10.7 µM (inactive) with IGROV-1.
On to `S=C(N/N=C\c1ccccn1)N(Cc1ccccn1)Cc1ccccn1`, for which the GI50 in the experiment with OVCAR-3 is 1.94 µM (inactive); in the experiment with NCI-H23, 1.87 µM (inactive); in the experiment with BT-549, 1.93 µM (inactive); in the experiment with Malme-3M, 1.37 µM (inactive); in the experiment on NCI-H460 it was 1.11 µM (active); with SK-OV-3 it was 2.04 µM (inactive). For the same compound, the GI50 in the experiment with M14 is 1.1 µM (active); in the experiment with Hs-578T it was 16 µM (inactive); in the experiment on TK-10, 0.637 µM (active); in the experiment with HOP-92, 1.32 µM (inactive); in the experiment with SK-MEL-5, 1.07 µM (active); with NCI-H522, 0.0637 µM (active). The GI50 in the experiment on SNB-75 is 5.43 µM (inactive); with 786-0, 0.697 µM (active); with HCT-15, 0.622 µM; in the experiment with SW-620 it was 0.333 µM (active); in the experiment on IGROV-1 it was 0.427 µM (active).
`Sc1nnc(CNc2ccc(-c3nnc(S)n3-c3ccc(Cl)cc3)cc2)n1-c1ccc(Cl)cc1`: the GI50 was 39 µM (inactive) with NCI-H23; 34.6 µM (inactive) in the experiment with BT-549; 6.58 µM (inactive) in the experiment with Malme-3M; 31.4 µM (inactive) with NCI-H460; 34.4 µM (inactive) with SK-OV-3; 25.2 µM (inactive) in the experiment with M14. The GI50 in the experiment on TK-10 is 37.2 µM (inactive); in the experiment with HOP-92 it was 23.9 µM (inactive); with SK-MEL-5 it was 25.1 µM (inactive); in the experiment on NCI-H522 it was 15.2 µM (inactive); in the experiment on SNB-75 it was 39.7 µM (inactive); in the experiment with 786-0, 26.9 µM (inactive). The GI50 was 48 µM in the experiment on HCT-15; 22.4 µM (inactive) with COLO 205; 55.2 µM (inactive) in the experiment with A498; 35.3 µM (inactive) in the experiment on SW-620; 3.21 µM (inactive) in the experiment with IGROV-1.
On to `OCCN(CCO)c1ccc2c(-c3ccccc3)cc(N(CCO)CCO)nc2n1`, for which the GI50 in the experiment on OVCAR-3, in the experiment on NCI-H23, in the experiment with BT-549, in the experiment with Malme-3M, with NCI-H460 and in the experiment with SK-OV-3 was > 100 µM (inactive) throughout. In addition, the GI50 in the experiment on M14, in the experiment on Hs-578T, in the experiment with TK-10, with SK-MEL-5, with NCI-H522 and in the experiment on SNB-75 was > 100 µM (inactive) each time. Besides, the GI50 in the experiment with 786-0 was > 100 µM (inactive); in the experiment with HCT-15, above 100 µM; with COLO 205, > 100 µM (inactive); in the experiment on A498 it was 54.2 µM (inactive); with SW-620, > 100 µM (inactive); in the experiment with IGROV-1, > 100 µM (inactive).
In the case of `NC(=O)/C=c1/c2ccccc2n2nc3ccccc3c12`, the GI50 was 15.7 µM (inactive) with OVCAR-3; 22.1 µM (inactive) in the experiment with NCI-H23; 29.9 µM (inactive) in the experiment with BT-549; 21.9 µM (inactive) with Malme-3M; 25.8 µM (inactive) in the experiment with NCI-H460; 16.3 µM (inactive) in the experiment with SK-OV-3. For the same compound, the GI50 in the experiment with M14 is 27.5 µM (inactive); in the experiment with Hs-578T, 31.2 µM (inactive); in the experiment on TK-10, 23.3 µM (inactive); with SK-MEL-5, 35.6 µM (inactive); with NCI-H522, 14.1 µM (inactive); in the experiment on 786-0 it was 8.67 µM (inactive). Besides, the GI50 in the experiment with HCT-15 was 12.2 µM; in the experiment on COLO 205 it was 20.4 µM (inactive); with A498 it was 32.1 µM (inactive); in the experiment with SW-620 it was 17.5 µM (inactive); with IGROV-1, 10.6 µM (inactive).
With `O=c1oc2c(Cl)cc(Cl)cc2cc1-c1cn2c(n1)sc1ccccc12`, the GI50 in the experiment with OVCAR-3 is 31.4 µM (inactive); with NCI-H23, 95.5 µM (inactive); with BT-549, 28.6 µM (inactive); with Malme-3M, > 100 µM (inactive); in the experiment on NCI-H460, > 100 µM (inactive); with SK-OV-3, > 100 µM (inactive). Also, the GI50 in the experiment with M14 is 78.7 µM (inactive); with Hs-578T, > 100 µM (inactive); with TK-10, > 100 µM (inactive); in the experiment with HOP-92, 56.1 µM (inactive); with SK-MEL-5, 39.2 µM (inactive); in the experiment on NCI-H522, 30.1 µM (inactive). For the same compound, the GI50 in the experiment with SNB-75 was > 100 µM (inactive); in the experiment on 786-0 it was 32.9 µM (inactive); in the experiment with HCT-15, 28.6 µM; in the experiment on COLO 205, 90.4 µM (inactive); with SW-620, 31.9 µM (inactive); in the experiment on IGROV-1, 44.1 µM (inactive).
In the case of `Cc1ccc(NC(=O)/C(CC2Nc3c(ccc4c3C(=O)c3ccccc3C4=O)NC2O)=N/NC(C)(C)C)cc1` (stereo unspecified), the GI50 with OVCAR-3 was 18.7 µM (inactive); in the experiment on NCI-H23, 17.7 µM (inactive); in the experiment with BT-549, 22 µM (inactive); in the experiment on NCI-H460 it was 9.57 µM (inactive); with SK-OV-3, 12.8 µM (inactive); in the experiment on M14, 18.7 µM (inactive). The GI50 was 9.4 µM (inactive) with Hs-578T; 7.66 µM (inactive) in the experiment with TK-10; 16.8 µM (inactive) in the experiment on HOP-92; 5.6 µM (inactive) with SK-MEL-5; 15.9 µM (inactive) with NCI-H522; 25.8 µM (inactive) with SNB-75. For the same compound, the GI50 in the experiment on 786-0 is 4.52 µM (inactive); in the experiment with HCT-15, 5.79 µM; with COLO 205 it was 21.5 µM (inactive); in the experiment on SW-620, 9.68 µM (inactive); with IGROV-1 it was 8.07 µM (inactive).
Consider `Cc1cn(C(CO)OC(CO)CN(O)C2C3CC4CC(C3)CC2C4)c(=O)[nH]c1=O` (stereo unspecified), for which the GI50 with NCI-H23, in the experiment on BT-549, in the experiment with NCI-H460, in the experiment on SK-OV-3, in the experiment with M14 and in the experiment on Hs-578T was > 100 µM (inactive) throughout. The GI50 with TK-10 was > 100 µM (inactive); with HOP-92, > 100 µM (inactive); with SK-MEL-5, > 100 µM (inactive); in the experiment on SNB-75, > 100 µM (inactive); in the experiment on 786-0, > 100 µM (inactive); in the experiment on HCT-15, above 100 µM. For the same compound, the GI50 in the experiment with COLO 205, in the experiment with A498, with SW-620 and in the experiment with IGROV-1 was > 100 µM (inactive) each time.
`Cc1ccc2c(=O)cc(Cc3csc4ccccc34)[nH]c2n1`: the GI50 in the experiment with OVCAR-3 is 28.8 µM (inactive); with NCI-H23, 19.3 µM (inactive); in the experiment on BT-549, 23.3 µM (inactive); in the experiment on Malme-3M it was 12.4 µM (inactive); in the experiment with SK-OV-3 it was 67 µM (inactive); in the experiment on M14, 32 µM (inactive). Also, the GI50 in the experiment with Hs-578T was 12.7 µM (inactive); with TK-10 it was 53.5 µM (inactive); in the experiment on SK-MEL-5, 16.4 µM (inactive); in the experiment with NCI-H522, 13.6 µM (inactive); in the experiment with SNB-75 it was 16.6 µM (inactive); with 786-0 it was 46.2 µM (inactive). Further, the GI50 was 12.1 µM with HCT-15; 26.7 µM (inactive) with COLO 205; 32.3 µM (inactive) in the experiment on A498; 40.7 µM (inactive) in the experiment with SW-620; 11.7 µM (inactive) with IGROV-1.
On to `COC1CN(C)/C(=N\c2cccc3ccccc23)S1` (stereo unspecified), for which the GI50 in the experiment with NCI-H23, in the experiment with BT-549, with Malme-3M, in the experiment with SK-OV-3, with M14 and in the experiment on Hs-578T was > 10 µM (inactive) each time. Besides, the GI50 with TK-10, with HOP-92, with SK-MEL-5, in the experiment with NCI-H522, in the experiment on SNB-75 and with 786-0 was > 10 µM (inactive) throughout. For the same compound, the GI50 is above 10 µM with HCT-15, > 10 µM (inactive) in the experiment with COLO 205, > 10 µM (inactive) in the experiment with SW-620 and > 10 µM (inactive) with IGROV-1.
Consider `O=S(=O)(O)c1cc(S(=O)(=O)O)c2cc(/N=N/c3c(O)ccc4ccccc34)ccc2c1`, for which the GI50 with OVCAR-3 was > 100 µM (inactive); in the experiment on NCI-H23, > 100 µM (inactive); in the experiment with BT-549 it was > 100 µM (inactive); with Malme-3M, 50.7 µM (inactive); in the experiment with SK-OV-3, > 100 µM (inactive); in the experiment on M14, > 100 µM (inactive). Besides, the GI50 in the experiment with Hs-578T, with TK-10, with HOP-92, with SK-MEL-5, in the experiment on NCI-H522 and in the experiment on SNB-75 was > 100 µM (inactive) each time. Moreover, the GI50 with 786-0 was > 100 µM (inactive); in the experiment with HCT-15, above 100 µM; with COLO 205, > 100 µM (inactive); in the experiment with SW-620 it was > 100 µM (inactive); in the experiment with IGROV-1 it was > 100 µM (inactive).
With `CC1(C)CCC(C)(C)c2cc(C(=O)Nc3ccc(C(=O)O)cc3)ccc21`, the GI50 in the experiment on OVCAR-3 was 17.9 µM (inactive); with NCI-H23, 17.9 µM (inactive); in the experiment on BT-549, 25.5 µM (inactive); in the experiment on Malme-3M, 18.7 µM (inactive); in the experiment with NCI-H460, 19.9 µM (inactive); with SK-OV-3, 19.8 µM (inactive). Also, the GI50 was 19.6 µM (inactive) in the experiment on M14; 26.1 µM (inactive) with TK-10; 27.1 µM (inactive) in the experiment with HOP-92; 23.6 µM (inactive) in the experiment on SK-MEL-5; 26.9 µM (inactive) with NCI-H522; 26.4 µM (inactive) with SNB-75. Moreover, the GI50 in the experiment with 786-0 is 28.9 µM (inactive); in the experiment on HCT-15 it was 22.7 µM; in the experiment on COLO 205 it was 18 µM (inactive); with A498, 31.7 µM (inactive); with SW-620 it was 36.7 µM (inactive); in the experiment with IGROV-1 it was 22.7 µM (inactive).
